What was measured:
[1] = tested on: Solid tumors including prostate, breast, and lung; conditions: oral; cited from earlier work
[2] = tested on: Tumor JH03 (pancreatic tumor); test: Direct pancreatic cancer derived xenograft, Tumor JH03; format: in vivo, mice; conditions: Gemcitabine 100 mg/kg 2 times/week for 4 weeks, ON-01910.Na 250 mg/kg/day for 4 weeks
From the text: (§1) Resected pancreatic adenocarcinomas are routinely implanted in nude mice at the Johns Hopkins Medical Institutions as a method to obtain enriched populations of neoplastic cells under an IRB-approved protocol from residual pancreatic cancer tumors. Briefly, tumor specimens from Whipple resection specimens were divided into 2-3 mm^3 pieces in antibiotic-containing RPMI media. Pieces of non-necrotic tissue were selected and immersed in Matrigel. Under anesthesia with isofluorane, tumors were implanted into five-to-six week-old female athymic (nu/nu) mice purchased from Harlan (Harlan Laboratories, Washington, D.C.). […] Tumor size was determined using calipers every four days for the course of the experiment. Relative tumor growth inhibition (TGI) was calculated as TGI=(Ti−T0/Ci−C0), where Ti and Ci represent tumor size in the treated and control group at 28-day, respectively; […] Experiments were terminated on day 28. […] Pancreatic tumors were implanted in mice as detailed above. Mice were treated with gemcitabine alone, ON-01910-Na alone, or a combination thereof as indicated. Tumor size was measured at four day intervals.

[3] = tested on: Tumor 28 (pancreatic tumor); test: Direct pancreatic cancer derived xenograft, Tumor 28; format: in vivo, mice; conditions: Gemcitabine 100 mg/kg 2 times/week for 4 weeks, ON-01910.Na 250 mg/kg/day for 4 weeks
From the text: as §1

[4] = tested on: Tumor 41 (pancreatic tumor); test: Direct pancreatic cancer derived xenograft, Tumor 41; format: in vivo, mice; conditions: Gemcitabine 100 mg/kg 2 times/week for 4 weeks, ON-01910.Na 250 mg/kg/day for 4 weeks
From the text: as §1

Plk1 = Plk1 expression analysis by RT-PCR in xenograft tumors harvested on day 28; format: in vivo, mice; conditions: JH03 tumor, day 28, compared with the other tumors
From the text: Total RNA was extracted from cell pellets (and tumors) using the RNeasy™ Mini Kit (Qiagen, Valencia, Calif.). cDNA was synthesized using iScript cDNA synthesis kit (Bio-Rad, Hercules, Calif.) following the manufacturer's instructions. Relative quantification of Plk1 and ubiquitin C (UBC, used as housekeeper gene) mRNA was achieved using an iCycler iQ real-time PCR detection system (Bio-Rad) using ABI Taqman probes (Foster City, Calif.). The experiments were repeated twice and samples were run in quadruplicate.
On day 28, animals were euthanized and tumors were removed for Plk1 expression analysis by RT-PCR using standard protocols. Plk1 expression levels were expressed relative to expression in non-drug treated control.
On day 28, tumors were harvested and analyzed for Plk1 expression (FIG. 2C).

Row | Structure (SMILES) | maximum tolerated dose [1] | susceptibility of tumor to treatment (tumor growth) [2] | susceptibility of tumor to treatment (tumor growth) [3] | susceptibility of tumor to treatment (tumor growth) [4] | Plk1 expression in tumor after exposure (Plk1)
1 | CCCCCCCCCCCCCCCC(=O)Nc1ccn([C@@H]2O[C@H](CO)[C@@H](O)[C@@H]2C#N)c(=O)n1 [sapacitabine] | dose 160 mg/m^2/day | – | – | – | –
2 | Nc1ccn(C2OC(CO)C(O)C2(F)F)c(=O)n1 (centres unmarked) [gemcitabine, 4-amino-1-[3,3-difluoro-4-hydroxy-5-(hydroxymethyl)tetrahydrofuran-2-yl]-1H-pyrimidin-2-one] | – | susceptible | resistant | susceptible | lowest expression of Plk1
